These are literature values, as cited in patent publication US7151091B2, “Compositions and methods for preventing infection” (The Johns Hopkins University, priority 2002, dated 2006).

The subject of series [1] is human immunodeficiency virus (HIV). Conditions: given to HIV-infected pregnant women before and during childbirth and to their infants after childbirth.
The conditions of series [2]: concentrations ranging from 5–100 mM.

Structures are written as SMILES.

Turning to `Cc1cn([C@H]2C[C@H](N=[N+]=[N-])[C@@H](CO)O2)c(=O)[nH]c1=O` [zidovudine], the “reduction of HIV transmission” value in series [1] is on record as “two-thirds”.
Take `CC(O)COC[C@H]1O[C@@H]2O[C@H]3[C@H](O)[C@@H](O)[C@@H](O[C@H]4[C@H](O)[C@@H](O)[C@@H](O[C@H]5[C@H](O)[C@@H](O)[C@@H](O[C@H]6[C@H](O)[C@@H](O)[C@@H](O[C@H]7[C@H](O)[C@@H](O)[C@@H](O[C@H]8[C@H](O)[C@@H](O)[C@@H](O[C@H]1[C@H](O)[C@H]2O)O[C@@H]8COCC(C)O)O[C@@H]7COCC(C)O)O[C@@H]6COCC(C)O)O[C@@H]5COCC(C)O)O[C@@H]4COCC(C)O)O[C@@H]3COCC(C)O` (stereo partly drawn) [2-OH-propyl-beta-cyclodextrin]: in series [2], the “removal of membrane cholesterol” value is recorded as “removes membrane cholesterol within minutes”.
